Values after ≈ are worked out from the molar mass of the structure shown. Values joined by “and” are separate entries in the source; they are usually repeats but may differ in a detail not shown here. Equal values may be shown once. “Also recorded” adds a separate entry of the source.
Key:
S. aureus Newman [1] = assay: Adhesion of S. aureus Newman to GST-L2v loricrin; assay type: cell-based, Staphylococcus aureus; conditions: for activity in adhesion of S. aureus Newman to L2v loricrin: screened at 80 μM (Fig. 4D)
Method: FIG 4 Allantodapsone inhibits S. aureus adhesion to loricrin and cytokeratin 10. Dose-response curve for adhesion of S. aureus Newman to GST-L2v loricrin (A) and CK10 (C). (B) Inhibition of recombinant ClfB N2N3 binding to immobilized GST-L2v loricrin by allantodapsone. (D) Inhibition of S. aureus Newman adhesion to GST-L2v loricrin by allantodapsone derivatives. Purified GST-L2v or CK10 were used to coat plates at 4°C overnight. Wells were washed with PBS and blocked with 1% BSA. Washed bacteria (OD600 of 1) were mixed with allantodapsone or vehicle control before being added to the wells and incubated for 2 h at 37°C. Adherent cells were washed, fixed, and stained with crystal violet, and wells further washed. The dye was dissolved in acetic acid, and the absorbance measured at 570 nm. GST-L2v was used at 20 μM in A and D. CK10 was used at 10 nM. Test compounds were incubated with bacteria at 80 μM and normalized to the DMSO vehicle control in D. For data presented in B, recombinant ClfB was incubated with allantodapsone (100 μM) or DMSO (1%) for 30 min prior to being added to wells coated with recombinant GST-L2v loricrin. Bound ClfB was detected using peroxidase-conjugated anti-His monoclonal antibody in an ELISA. The graphs shown are representative of three independent experiments. Statistics were carried out using one-way ANOVA followed by the Dunnett’s posttest using GraphPad Prism version 9.0.
(§1) Adhesion assays were carried out according to Hartford et al. ([37]). Briefly, plates were coated with 10 μg/mL fibrinogen (Calbiochem, Darmstadt, Germany) or 20 μg/mL fibronectin (Sigma-Aldrich, Ireland) for 2 h at 37°C or for 16 h at 4°C. Plates were blocked with 1% BSA at 37°C for 1 h and washed 3 times in PBS. Washed bacteria were incubated at 37°C for 2 h. Adherent bacteria were washed three times in PBS and fixed in 5–9% formaldehyde at room temperature for 30 min. Wells were washed three times in PBS and stained using 5% crystal violet for 20 min. Wells were washed three times in PBS, and the crystal violet solubilized using 5% acetic acid. Plates were read at 570 nm on a Wallac Victor2, (Shelton, CT, USA). The minimum adhesion inhibitory concentration (MAIC) was determined as the concentration inhibiting greater than 90% bacterial adhesion.

S. aureus Newman [2] = assay: Adhesion of S. aureus Newman to immobilized fibrinogen (crystal violet); assay type: cell-based, Staphylococcus aureus; conditions: for inhibition of adhesion to fibrinogen: S. aureus Newman, stationary and exponential phase, compounds screened at 70 μM (Fig. 2); for activity of individual fragments of allantodapsone: assay not specified
Method: FIG 1 Allantodapsone inhibits S. aureus Newman adhesion to fibrinogen. Dose response curves for S. aureus Newman (A), L. lactis ClfA (B), and L. lactis ClfB (C) adhesion to fibrinogen. Fibrinogen was used to coat plates at 4°C overnight at 10 μg/mL. Wells were washed with PBS and blocked with 1% BSA. Washed bacteria (OD600 of 1) were mixed with the relevant concentration of allantodapsone or vehicle control (DMSO) for 5 min, and added to the wells, incubating for 2 h at 37°C. Adherent cells were washed, fixed, and stained with crystal violet, and wells further washed. The dye was dissolved in acetic acid and the absorbance measured at 570 nm. IC50 values were generated using GraphPad Prism 9.0 GraphPad software, San Diego, CA. Data are representative of three experiments with error presented as SEM.
(§2) FIG 2 Allantodapsone inhibits S. aureus adhesion to fibrinogen. (A) S. aureus Newman stationary phase and (B) exponential phase. (C) S. aureus SH1000 stationary phase and (D) exponential phase bacteria. Fibrinogen was used to coat plates at 4°C overnight at 10 μg/mL. Wells were washed with PBS and blocked with 1% BSA. Washed bacteria (OD600 of 1) were mixed with the relevant concentration of allantodapsone or vehicle control for 5 min, and added to the wells, incubating for 2 h at 37°C. Adherent cells were washed, fixed, and stained with crystal violet, and wells further washed. The dye was dissolved in acetic acid and the absorbance measured at 570 nm. Compounds were screened at a concentration of 70 μM and compared to their vehicle control. Statistical analysis was carried out using repeated measures ANOVA followed by multiple comparisons Dunnett’s tests using GraphPad PRISM. **, P ≤ 0.01; ***, P ≤ 0.001; ****, P ≤ 0.0001 (n = 3).
as §1
(§3) Compounds were added to the bacterial suspension prior to addition to the wells. In each experiment, vehicle controls were prepared using the same volume of vehicle for the matching test compound.

S. aureus SH1000 = assay: Adhesion of S. aureus SH1000 to immobilized fibrinogen (crystal violet); assay type: cell-based, Staphylococcus aureus; conditions: S. aureus SH1000, stationary and exponential phase; compounds screened at 70 μM (Fig. 2)
Method: as §2, §1, §3

S. aureus Newman [3] = assay: Antimicrobial assay (bacterial growth in BHI broth); assay type: cell-based, Staphylococcus aureus; conditions: for MIC90: Staphylococcus aureus, S. aureus Newman, overnight growth in BHI broth; for inhibition of bacterial growth (words): overnight in BHI broth, allantodapsone up to 100 μM, versus vehicle control
Method: S. aureus was grown in BHI broth shaking overnight at 37°C in the presence of a range of concentrations of allantodapsone, dapsone, or ampicillin as control. Absorbance was measured the following day at 570 nm. Data have been normalized to the relevant vehicle control (1% DMSO for allantodapsone and dapsone and water for ampicillin). […] Error bars represent SEM.
S. aureus was grown overnight in BHI broth at 37°C in shaking incubator. Wells were inoculated with 10 μL of overnight culture into 90 μL of broth containing the test compounds or controls. A growth control containing no agents was used (positive control), a sterility control of broth alone was included, and vehicle controls were included for each test compound. Plates were incubated overnight at 37°C and absorbance measured at 570 nm the following day using a Wallac Victor2, (Shelton, CT, USA).

MSSA isolates = conditions: cited from earlier work

SMILES	activity in adhesion of S. aureus Newman to L2v loricrin (S. aureus Newman [1])	inhibition of adhesion to fibrinogen (S. aureus Newman [2])	activity of individual fragments of allantodapsone (S. aureus Newman [2])	inhibition of adhesion to fibrinogen (S. aureus SH1000)	MIC90 (S. aureus Newman [3])	inhibition of bacterial growth (words) (S. aureus Newman [3])	further results
N=C(N)Nc1ccc(Oc2cccc(NC(=N)N)c2)cc1 [Compound 10]	loss of activity	–	–	–	–	–	–
N=C(N)Nc1ccc(Oc2cccc(NC(=O)c3ccc(Cl)c(C(F)(F)F)c3)c2)cc1 [Compound 11]	demonstrated activity; also recorded: maintained some activity	–	–	–	–	–	adhesion to L2v loricrin, normalized to DMSO vehicle control (S. aureus Newman [1]; test compound at 80 μM, S. aureus Newman): 61.3% ± 7
O=C1NC(=O)C(=O)C(=O)N1 [alloxan]	–	Neither dapsone nor alloxan had any inhibitory activity; also recorded: did not have any inhibitory effect	did not show any activity	Neither dapsone nor alloxan had any inhibitory activity	–	–	–
CC1(C)S[C@@H]2[C@H](NC(=O)[C@H](N)c3ccccc3)C(=O)N2[C@H]1C(=O)O [ampicillin]	–	–	–	–	0.03 µM and 0.01 µg/mL	pronounced inhibitory effect on growth	MIC90 reported for S. aureus isolates (MSSA isolates; microdilution method in MSSA isolates): 0.015 to 4 µg/mL
Nc1ccc(S(=O)(=O)c2ccc(N)cc2)cc1 [dapsone]	–	Neither dapsone nor alloxan had any inhibitory activity; also recorded: did not have any inhibitory effect	did not show any activity	Neither dapsone nor alloxan had any inhibitory activity	0.3 µM and 0.1 µg/mL	inhibited growth	MIC90 previously determined in MSSA strains (MSSA isolates; MSSA strains): 128 µg/mL (≈ 515 µM); range printed in parentheses after MIC90 in MSSA strains (MSSA isolates; MSSA strains): 32 to 256 µg/mL
O=C1NC(=O)C(=NO)C(=O)N1 [violuric acid]	–	–	did not show any activity	–	–	–	–

— publication PMC9241669, “Allantodapsone is a Pan-Inhibitor of Staphylococcus aureus Adhesion to Fibrinogen, Loricrin, and Cytokeratin 10” (Microbiology Spectrum, 2022)
